This is an account of results in ChEMBL document CHEMBL6096664, “Discovery of novel KSP-targeting PROTACs with potent antitumor effects in vitro and in vivo” (Eur J Med Chem, 2025).

Assay [1] deals with HCT-116. The experiment in a line: Induction of cell cycle arrest in human HCT-116 cells assessed as accumulation of cells at G2/M phase at 10 nM incubated for 24 hrs by RNase A/propidium iodide staining based flow cytometric analysis (reference value: 4.05 %). Format: functional.
For assay [2], the system named is HCT-116. The experiment in a line: Induction of cell cycle arrest in human HCT-116 cells assessed as accumulation of cells at G1 phase at 10 nM incubated for 24 hrs by RNase A/propidium iodide staining based flow cytometric analysis (reference value: 93.11 %). Format: functional.
For another assay, the system named is A549. As to the kind of experiment: Antiproliferative activity against human A549 cells assessed as inhibition of cell proliferation measured after 72 hrs by CCK8 assay. It counts as functional, cell-based. The conditions noted are these: A549, 72 h.
For assay [3], the system named is HCT-116. The experiment in a line: Antiproliferative activity against human HCT-116 cells assessed as inhibition of cell proliferation measured after 72 hrs by CCK8 assay. Format: functional, cell-based. The conditions noted are these: HCT-116, 72 h.
Assay [4] deals with T1, Kinesin-like protein KIF11 (Homo sapiens, UniProt P52732).
T1 sequence (P52732 whole entry): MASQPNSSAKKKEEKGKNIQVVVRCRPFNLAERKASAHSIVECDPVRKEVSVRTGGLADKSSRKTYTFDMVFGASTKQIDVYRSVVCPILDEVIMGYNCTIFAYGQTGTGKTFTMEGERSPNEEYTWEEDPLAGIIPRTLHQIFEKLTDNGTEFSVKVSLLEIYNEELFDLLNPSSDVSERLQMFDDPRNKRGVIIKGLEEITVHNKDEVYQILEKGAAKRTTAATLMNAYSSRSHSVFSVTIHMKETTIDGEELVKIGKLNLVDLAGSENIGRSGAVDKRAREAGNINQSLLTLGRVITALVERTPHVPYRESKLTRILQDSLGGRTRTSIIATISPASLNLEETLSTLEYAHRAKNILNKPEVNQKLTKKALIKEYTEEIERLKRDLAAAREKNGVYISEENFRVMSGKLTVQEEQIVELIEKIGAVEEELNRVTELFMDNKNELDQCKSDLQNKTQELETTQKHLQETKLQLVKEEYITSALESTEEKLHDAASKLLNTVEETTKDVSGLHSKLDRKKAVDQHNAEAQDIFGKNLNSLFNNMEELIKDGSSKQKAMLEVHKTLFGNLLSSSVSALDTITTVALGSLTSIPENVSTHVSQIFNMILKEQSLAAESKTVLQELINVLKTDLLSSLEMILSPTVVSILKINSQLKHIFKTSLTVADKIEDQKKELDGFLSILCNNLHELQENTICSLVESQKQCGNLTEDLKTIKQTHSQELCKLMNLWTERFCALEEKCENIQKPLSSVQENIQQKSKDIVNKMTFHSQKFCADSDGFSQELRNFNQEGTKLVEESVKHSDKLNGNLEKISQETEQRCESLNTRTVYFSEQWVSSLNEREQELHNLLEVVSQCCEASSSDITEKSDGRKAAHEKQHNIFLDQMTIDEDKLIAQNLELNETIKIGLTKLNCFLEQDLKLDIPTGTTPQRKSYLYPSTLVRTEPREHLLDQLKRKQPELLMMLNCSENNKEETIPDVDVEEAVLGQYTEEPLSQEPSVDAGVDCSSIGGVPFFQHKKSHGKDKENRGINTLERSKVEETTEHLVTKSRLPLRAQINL
The experiment in a line: Inhibition of KSP (unknown origin) ATPase activity preincubated for 30 mins followed by ATP addition and measured after 15 mins by Kinase-Glo Plus reagent based luminescence analysis.

Assay [5] relates to HCT-116. The experiment in a line: Induction of apoptosis in human HCT-116 cells assessed as viable cells at 100 nM incubated for 48 hrs by Annexin V-FITC/PI staining based flow cytometry analysis (reference value: 94.31 %). It counts as functional. The conditions noted are these: read-out: Activity.
The test system of assay [6] is HCT-116. As to the kind of experiment: Induction of cell cycle arrest in human HCT-116 cells assessed as accumulation of cells at S phase at 10 nM incubated for 24 hrs by RNase A/propidium iodide staining based flow cytometric analysis (reference value: 2.84 %). It counts as functional.
For assay [7], the system named is HCT-116. As to the kind of experiment: Induction of apoptosis in human HCT-116 cells assessed as necrotic cells at 100 nM incubated for 48 hrs by Annexin V-FITC/PI staining based flow cytometry analysis (reference value: 1.31 %). It counts as functional.
The test system of another assay is MDA-MB-231. As to the kind of experiment: Antiproliferative activity against human MDA-MB-231 cells assessed as inhibition of cell proliferation measured after 72 hrs by CCK8 assay. It counts as functional, cell-based. The conditions noted are these: MDA-MB-231, 72 h.
Assay [8] has as its system HCT-116. As to the kind of experiment: Induction of apoptosis in human HCT-116 cells assessed as late apoptotic cells at 100 nM incubated for 48 hrs by Annexin V-FITC/PI staining based flow cytometry analysis (reference value: 1.36 %). It counts as functional.
The next assay relates to MCF7. As to the kind of experiment: Antiproliferative activity against human MCF7 cells assessed as inhibition of cell proliferation measured after 72 hrs by CCK8 assay. Format: functional, cell-based. The conditions noted are these: MCF7, 72 h.
For assay [9], the target named is Protein cereblon/Kinesin-like protein KIF11 (Homo sapiens, UniProt P52732+Q96SW2). As to the kind of experiment: PROTAC activity at CRBN/KSP in human HCT-116 cells assessed as induction of KSP degradation at 500 nM incubated for 48 hrs by Western blot analysis relative to control. Format: cell-based.
Sequence of Protein cereblon/Kinesin-like protein KIF11 (Q96SW2 whole entry, looked up, one chain of several): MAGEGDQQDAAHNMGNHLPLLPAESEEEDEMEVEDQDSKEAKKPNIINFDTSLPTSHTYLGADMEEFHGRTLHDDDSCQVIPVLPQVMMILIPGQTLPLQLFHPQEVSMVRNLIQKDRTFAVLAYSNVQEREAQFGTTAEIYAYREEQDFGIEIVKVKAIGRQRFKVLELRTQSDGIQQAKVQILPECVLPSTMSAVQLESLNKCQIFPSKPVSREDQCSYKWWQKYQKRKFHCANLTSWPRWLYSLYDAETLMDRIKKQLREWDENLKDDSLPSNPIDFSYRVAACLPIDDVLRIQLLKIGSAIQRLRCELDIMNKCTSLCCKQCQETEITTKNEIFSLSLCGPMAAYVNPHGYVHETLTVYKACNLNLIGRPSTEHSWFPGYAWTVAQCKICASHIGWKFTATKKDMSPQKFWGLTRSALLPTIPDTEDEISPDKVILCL
Assay [10] has as its system HCT-116. The experiment in a line: Induction of apoptosis in human HCT-116 cells assessed as early apoptotic cells at 100 nM incubated for 48 hrs by Annexin V-FITC/PI staining based flow cytometry analysis (reference value: 3.02 %). Format: functional.

For the compound `COc1ccc(C2(SC[C@H](N)C(=O)O)c3ccccc3C=Cc3ccccc32)cc1`, the Activity in the assay on HCT-116 [1] was found to be 21.03%; in the assay with HCT-116 [2], 66.9%; with HCT-116 [6], 12.07%; with HCT-116 [7] it was 14.06%; in the assay with HCT-116 [8], 23.79%; in assay [9], 0%. The Activity with HCT-116 [10] is 31.49%. Moreover, the IC50 in the assay with A549 was 262 nM; in the assay on HCT-116 [3] it was 8.5 nM; in [4], 27.6 nM; with MDA-MB-231, 12.1 nM; with MCF7, 17.5 nM. Besides, the viability at 0.1 µM in the assay on HCT-116 [5] was determined as 30.7%.
